Reference: patent US20240417689A1, “ENGINEERING OF STRATIFIED CELL SHEETS USING MESENCHYMAL STEM CELLS” (Emmaus Life Sciences, Inc, priority 2021, published 2024)
“Also recorded” adds a separate entry of the source.

Tests used:
adipose stromal cells [1] = test: Chondrogenic differentiation of stem cells in differentiation medium supplemented with ROCK inhibitor; assay type: cell-based, human; conditions: for Induction of stem cell differentiation: differentiation medium supplemented with ROCK inhibitor; for Cell differentiation noticed / started, time after initial treatment with ROCK inhibitor: MesenCult-ACF Chondrogenic Differentiation medium supplemented with ROCK inhibitor, dose dependent
Protocol: (§1) Chondrocyte Cell Sheet: ASC were cultured with RoosterNourish™-MSC-XF, until the cells reached confluence. From that day, ASC were cultured with MesenCult™-ACF Chondrogenic Differentiation Kit (Stem Cell, Vancouver, Canada). The culture media was replaced every 2 days, up to X days from the initial seeding day depending on the technique used to engineer the cell sheet.
(§2) One of two techniques was used to complete the engineering process: 1) To stop centrifuge tension, the edges of the cell sheets were cut, and the cell sheet was left resting in almost absence of culture media (MesenCult™-ACF Chondrogenic Differentiation) to let the cell sheets' edges attached to the cell culture surface, for 20 minutes. The differentiation culture media (MesenCult™-ACF Chondrogenic Differentiation) was added to the cell culture dish and the chondrocyte cell sheet was engineered up to 21 days after the initial day of differentiation. 2) ROCK inhibitor Y-27632 at 10 μM or ROCK inhibitor Y-33075 at 1 μM were used from the first day of differentiation.

adipose stromal cells [2] = test: Toxicity of ROCK inhibitor for the cells during differentiation; assay type: cell-based; conditions: dose response
adipose stromal cells [3] = test: Engineering of chondrocyte cell sheets with ROCK inhibitor (detachment, time of formation); assay type: cell-based, human; conditions: for Success in engineering the chondrocyte multilayer cell sheets: ROCK 1 and 2 inhibitors; for Detachment of the cell sheets / Time in which cell sheets were formed: Y-27632 at 10 μM or Y-33075 at 1 μM from the first day of differentiation; for Reduction of the time of differentiation: Y-27632 at 10 μM or Y-33075 at 1 μM, versus 21 days with edge cutting
Protocol: as §1, §2
Undifferentiated ASCCS were engineered in 10 days, using a chemically defined culture media. Differentiated ASCCS into Chondrocyte (treated with ROCK inhibitor from 1 to 20 μM), […] and osteoblast were also engineered using chemically defined and animal free culture media, in 14, 21 and 14 days, respectively. The transmittance of the ASCCS were measured over time from the time the cells reached confluence until the cell sheets were harvested.

Structure (SMILES)	Induction of stem cell differentiation (adipose stromal cells [1])	Toxicity for the cells (adipose stromal cells [2])	Cell differentiation noticed / started, time after initial treatment with ROCK inhibitor (adipose stromal cells [1])	Success in engineering the chondrocyte multilayer cell sheets (adipose stromal cells [3])	Detachment of the cell sheets (adipose stromal cells [3])	Time in which cell sheets were formed (adipose stromal cells [3])	Reduction of the time of differentiation (adipose stromal cells [3])
CC(C)NC(=O)COc1cccc(-c2nc(Nc3ccc4[nH]ncc4c3)c3ccccc3n2)c1 [Belumosudil, 2-[3-[4-(1H-Indazol-5-ylamino)quinazolin-2-yl]phenoxy]-N-propan-2-ylacetamide]	failed to induce stem cell differentiation; also recorded: does not induce cell differentiation	toxic for the cells in a dose response, inducing cell death	–	–	–	–	–
Cc1cncc2cccc(S(=O)(=O)N3CCCNC[C@@H]3C)c12 [H-1152, (S)-4-methyl-5-((2-methyl-1,4-diazepan-1-yl)sulfonyl)isoquinoline]	induced the cell differentiation but it is less efficient than Y-27632 and Y-33075	–	2 days	–	–	–	–
C[C@@H](N)[C@H]1CC[C@H](C(=O)Nc2ccncc2)CC1 [Y-27632, (1R,4r)-4-((R)-1-aminoethyl)-N-(pyridin-4-yl)cyclohexane-1-carboxamide]	–	–	2 days	used with success	didn't detach	2 weeks	33%
C[C@@H](N)c1ccc(C(=O)Nc2ccnc3[nH]ccc23)cc1 [Y-33075, (R)-4-(1-aminoethyl)-N-(1H-pyrrolo[2,3-b]pyridin-4-yl)benzamide]	–	–	1 days	used with success	didn't detach	2 weeks	33%
